Measured values from article PMC9094630, “Epidemiological Impact of GII.17 Human Noroviruses Associated With Attachment to Enterocytes” (Frontiers in Microbiology, 2022).

Biological target: T1, GII.17 Kawasaki 308 variant VLP (E12905) (Norovirus GII.17, UniProt A0A0S2ZZA3)
T1 construct: gene VP1
Details: ligand as BSA conjugate (about 20 per BSA, multivalent), immobilized; VLP 2 ng/ul; HBS pH 7.4, 25 C; also ELISA (Figure 4A)

SMILES: CC(=O)N[C@H]1[C@H](O[C@H]2[C@@H](O)[C@@H](CO)O[C@@H](O[C@H]3[C@H](O)[C@@H](O)C(O)O[C@@H]3CO)[C@@H]2O)O[C@H](CO)[C@@H](O)[C@@H]1O[C@@H]1O[C@H](CO)[C@H](O)[C@H](O)[C@H]1O[C@@H]1O[C@@H](C)[C@@H](O)[C@@H](O)[C@@H]1O (stereo partly shown) [lacto-N-fucopentaose I]
- GII.17 variant / Kawasaki 308: 255 RU
